Holding throughout (assay type): cell-based, human
The test system of one series is RPA70 mRNA. In words: RPA70 mRNA expression in Mia Paca II cells, dose response, Northern blot. As to conditions: for % mRNA EXPRESSION / % mRNA INHIBITION: Mia Paca II. The protocol:
Antisense treatments were performed with phosphorothioate oligodeoxynucleotides. Cells were cultured in 6-well plates to 60-80% confluency for use in oligonucleotide treatments. Cells were washed once with OPTI-MEM™ (Life Technologies), pre-warmed to 37° C. Transfections were carried out in 1 ml OPTI-MEM™ containing 3 μg LIPOFECTIN™ (Life Technologies) per ml of Opti-MEM™ per 100 nM added oligonucleotide. OPTI-MEM™ containing the appropriate amount of LIPOFECTIN™ was added to the cells followed by addition of oligonucleotides from 1000×stocks. (For dose-response studies oligonucleotides were added from 20×stocks.) Cells were incubated for 5 h at 37° C. Following treatment, medium was removed and replaced with pre-warmed replete media (Bennett, C. F., et al., Mol. Pharm., 1992, 41, 1023-1033; Monia, B. P., et al., Nature Medicine, 1993, 2, 668-674).
Target mRNA levels were assessed by Northern blotting with target specific random primed [α-^32 P]dCTP-labeled cDNA probes, as described below. cDNAs for probes were obtained by specific RT-PCR of cellular RNAs.
For determination of mRNA levels by Northern blot, total RNA was prepared from cells 24 h after oligonucleotide addition using a SDS-lysis method (Peppel, K. and Baglioni, C., Biotechniques, 1990, 9, 711-713). Northern analysis was performed as described (Brown, T. and Mackey, K., in Current protocols in Molecular Biology (Ausubel, F. ed.), 1987, Vol. 1, pp. 4.9.1-4.912, Greene publishing, New York). To determine RPA70 mRNA expression RNA blots were probed using a random primed [α-^32 P]dCTP-labeled cDNA probe corresponding to a 562 nucleotide sequence (1519-2081) from human RPA70 (Erdile, L. F., et al., J. Biol. Chem., 1991, 266, 12090-12098). After transfer, membranes were prehybridized with Quik-Hyb solution (Stratagene, La Jolla, Calif.) for 1 h at 68° C. and then hybridized 1-4 hours with 12.5×10^6 cpm of cDNA probe and 2 μg salmon sperm DNA carrier in a total of 10 ml of hybridization solution. Following hybridization, membranes were washed twice at room temperature for 15 min in 2×SSC/0.1% SDS and then once at 60° C. for 30 min in 0.1×SSC/0.1% SDS.
RNA on the blots was quantified by phosphorimaging on a Fuji FLA-2000. RPA70 mRNA levels are normalized to the level of RPA70 mRNA measured in cells treated with 400 nM control 20N-mer phosphorothioate oligonucleotide and expressed as percentage of control treated levels. Glyceraldehyde phosphate dehydrogenase (GAPDH) mRNA levels were probed using a random primed GAPDH cDNA generated by RT-PCR with human GAPDH primers (Stratagene, Inc., La Jolla, Calif.). […]

In a further series the test system is T24 cells. As to the kind of experiment: Tumor cell survival, cell number by hemocytometer. As to conditions: T24, 400 nM, 72 hours. As to the method:
(§1) To determine the effects of ISIS 12790 on tumor cell survival, T24, A549, Mia Paca II, and SW480 cells were treated with either ISIS 12790 or ISIS 13706 (a 20-mer with identical nucleotide composition but containing 7 mismatches relative to the target) and surviving cells counted 72 hours later.
(§2) For experiments where cell number was measured directly by hemocytometer, cells were plated in six well dishes 24 hr prior to the experiment and transfected at approximately 50-70% confluency with various phosphorothioate oligonucleotides at 400 nM, as described above. Following a single transfection, the cells were allowed to recover 72 hours. After 72 hr the cells were washed, trypsinized, and cell number was determined by hemocytometer. For each experiment, treatments were performed in triplicate wells. The number of cells corresponding to each well was determined twice.
(§3) Statistical analysis of mRNA levels and cell survival data were performed using BMDP Statistical package, Version 7.0 (BMDP Statistical Software, Inc., Los Angeles, Calif.). Data were subjected to ANOVA and the results were expressed in terms of F-values, t-values, and significance. For cell survival data, analyses included repeated measurements with 3 between factors (drug, concentration, and position). For mRNA levels only the 3 between factors were considered. Global comparisons were performed with F-tests and pairwise comparisons with t-tests. In each case, since there was no interaction with position, results were pooled and analyzed with two between factors (drug and concentration). Treatment with ISIS 12790 was associated with decreased cell number in all four tumor cell lines (see Table 4). The decrease in cell number observed in T24 cells was 79%. The decrease observed in the other three cell lines was: A549, 98% decrease; Mia Paca II, 85% decrease; SW480, 81% decrease.

The next series concerns SW480 cells. In words: Tumor cell survival, cell number by hemocytometer. The conditions noted are these: SW480, 400 nM, 72 hours. As to the method: as §1, §2, §3
For a further series, the system named is Mia Paca II cells. As to the kind of experiment: Tumor cell survival, cell number by hemocytometer. As to conditions: 400 nM, 72 hours. The protocol:
as §1, §2, §3

In another series the test system is A549 cells. As to the kind of experiment: Tumor cell survival, cell number by hemocytometer. The conditions noted are these: A549, 400 nM, 72 hours. As to the method:
as §1, §2, §3

Consider “ISIS 12790: phosphorothioate oligodeoxynucleotide TGGTCTGCAGTTAGGGTCAG, SEQ ID NO 15, 3'-UTR 2230-2249, non-allele specific (DNA, all phosphorothioate, methylation of C not given here)”, for which, in the series on RPA70 mRNA (Mia Paca II cells (C allele)), the “effect on RPA70 mRNA level” value is on record as “dose-dependent decrease in RPA70 mRNA levels”. Moreover, the “% mRNA EXPRESSION” value in the series on RPA70 mRNA (50 nM) was 43%; with RPA70 mRNA (100 nM) it was 18%; in the series with RPA70 mRNA (200 nM), 14%; with RPA70 mRNA (400 nM), 20%. Moreover, the “% mRNA INHIBITION” value in the series with RPA70 mRNA (50 nM) is reported as 57%; in the series on RPA70 mRNA (100 nM), 82%; in the series with RPA70 mRNA (200 nM), 86%; with RPA70 mRNA (400 nM) it was 80%. Moreover, the “% Cell Killing” value came out at 79% with T24 cells, 81% with SW480 cells and 98% with A549 cells. The “% Cell Survival” value is listed as 21% in the series with T24 cells, 19% in the series on SW480 cells and 2% in the series on A549 cells. In addition, the “decrease in cell number” value in the series on T24 cells came to 79%; with SW480 cells it was 81%; in the series on Mia Paca II cells it was 85%; in the series on A549 cells, 98%.

The values above are taken from patent US6309882A, “Antisense inhibition of replication protein a p70 subunit” (ISIS Pharmaceuticals, Inc., priority 1999, dated 2001).
